Results: patent US20050159360A1, “Compositions for the transport of therapeutic molecules into the lungs and use thereof for the treatment of lung cancers and pulmonary diseases” (SYNT:EM, a corporation of France, priority 2002, published 2005)

Experiment: Pharmacokinetics/biodistribution of [14C]-tagged doxorubicin and vectorized doxorubicin in plasma and organs after intravenous injection in mice;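 further: radioactivity counted in plasma and organs of mice killed 1 to 60 min post-dose, converted to percentage of product per organ, five animals per time point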
Details: i.v., 1 mg/kg doxorubicin equivalent, 14C radioactivity
Protocol: About 0.6-1 microcurie was injected per animal. The doxorubicin was tagged with carbon 14 (specific activity 55 mCi/mmol). After the indicated time periods (1, 5, 15, 30, 60 minutes), the mice were sacrificed. The organs (lungs, liver, brain, kidneys, etc.) and the plasma were then collected and counted. The quantity of radioactivity in each organ was then expressed as quantity of product per gram of organ. In this study, five mice were used for each time period.
After injection of the doxorubicin or the vectorized doxorubicin, we compared the pharmacokinetics/biodistribution of the products in the plasma and the different organs. The quantity of each product was expressed as percentage of product per organ.

Percentage of product in Brain after intravenous injection (time 1 minute): 0.06%
Percentage of product in Heart after intravenous injection (time 1 minute): 0.58%
Percentage of product in Kidneys after intravenous injection (time 1 minute): 3.37%
Percentage of product in Liver after intravenous injection (time 1 minute): 17.81%
Percentage of product in Lungs after intravenous injection (time 1 minute): 1.30%
Percentage of product in Plasma after intravenous injection (time 1 minute): 1.84%
Percentage of product in Brain after intravenous injection (time 5 minutes): 0.03%
Percentage of product in Heart after intravenous injection (time 5 minutes): 0.52%
Percentage of product in Kidneys after intravenous injection (time 5 minutes): 5.58%
Percentage of product in Liver after intravenous injection (time 5 minutes): 23.02%
Percentage of product in Lungs after intravenous injection (time 5 minutes): 1.24%
Percentage of product in Plasma after intravenous injection (time 5 minutes): 0.53%
Percentage of product in Brain after intravenous injection (time 15 minutes): 0.03%
Percentage of product in Heart after intravenous injection (time 15 minutes): 0.54%
Percentage of product in Kidneys after intravenous injection (time 15 minutes): 5.24%
Percentage of product in Liver after intravenous injection (time 15 minutes): 20.22%
Percentage of product in Lungs after intravenous injection (time 15 minutes): 1.14%
Percentage of product in Plasma after intravenous injection (time 15 minutes): 0.34%
Percentage of product in Brain after intravenous injection (time 30 minutes): 0.02%
Percentage of product in Heart after intravenous injection (time 30 minutes): 0.45%
Percentage of product in Kidneys after intravenous injection (time 30 minutes): 4.48%
Percentage of product in Liver after intravenous injection (time 30 minutes): 19.70%
Percentage of product in Lungs after intravenous injection (time 30 minutes): 1.03%
Percentage of product in Plasma after intravenous injection (time 30 minutes): 0.19%
Percentage of product in Brain after intravenous injection (time 60 minutes): 0.02%
Percentage of product in Heart after intravenous injection (time 60 minutes): 0.36%
Percentage of product in Kidneys after intravenous injection (time 60 minutes): 2.43%
Percentage of product in Liver after intravenous injection (time 60 minutes): 17.80%
Percentage of product in Lungs after intravenous injection (time 60 minutes): 0.85%
Percentage of product in Plasma after intravenous injection (time 60 minutes): 0.18%
Structure (SMILES): COc1cccc2c1C(=O)c1c(O)c3c(c(O)c1C2=O)C[C@@](O)(C(=O)CO)C[C@@H]3O[C@H]1C[C@H](N)[C@H](O)[C@H](C)O1 [compound 1, doxorubicin]
